{
  "source": "patent US9771340B2",
  "about": "“2-aminothiazole derivatives and methods of preparing and using the same” (Huazhong University of Science & Technology, priority 2011, dated 2017)",
  "key": {"PARP-1": {"target": "T1, PARP-1 (Homo sapiens, UniProt P09874)", "T1 construct": "purchased R&D 4677-096-K", "T1 sequence (P09874 whole entry)": "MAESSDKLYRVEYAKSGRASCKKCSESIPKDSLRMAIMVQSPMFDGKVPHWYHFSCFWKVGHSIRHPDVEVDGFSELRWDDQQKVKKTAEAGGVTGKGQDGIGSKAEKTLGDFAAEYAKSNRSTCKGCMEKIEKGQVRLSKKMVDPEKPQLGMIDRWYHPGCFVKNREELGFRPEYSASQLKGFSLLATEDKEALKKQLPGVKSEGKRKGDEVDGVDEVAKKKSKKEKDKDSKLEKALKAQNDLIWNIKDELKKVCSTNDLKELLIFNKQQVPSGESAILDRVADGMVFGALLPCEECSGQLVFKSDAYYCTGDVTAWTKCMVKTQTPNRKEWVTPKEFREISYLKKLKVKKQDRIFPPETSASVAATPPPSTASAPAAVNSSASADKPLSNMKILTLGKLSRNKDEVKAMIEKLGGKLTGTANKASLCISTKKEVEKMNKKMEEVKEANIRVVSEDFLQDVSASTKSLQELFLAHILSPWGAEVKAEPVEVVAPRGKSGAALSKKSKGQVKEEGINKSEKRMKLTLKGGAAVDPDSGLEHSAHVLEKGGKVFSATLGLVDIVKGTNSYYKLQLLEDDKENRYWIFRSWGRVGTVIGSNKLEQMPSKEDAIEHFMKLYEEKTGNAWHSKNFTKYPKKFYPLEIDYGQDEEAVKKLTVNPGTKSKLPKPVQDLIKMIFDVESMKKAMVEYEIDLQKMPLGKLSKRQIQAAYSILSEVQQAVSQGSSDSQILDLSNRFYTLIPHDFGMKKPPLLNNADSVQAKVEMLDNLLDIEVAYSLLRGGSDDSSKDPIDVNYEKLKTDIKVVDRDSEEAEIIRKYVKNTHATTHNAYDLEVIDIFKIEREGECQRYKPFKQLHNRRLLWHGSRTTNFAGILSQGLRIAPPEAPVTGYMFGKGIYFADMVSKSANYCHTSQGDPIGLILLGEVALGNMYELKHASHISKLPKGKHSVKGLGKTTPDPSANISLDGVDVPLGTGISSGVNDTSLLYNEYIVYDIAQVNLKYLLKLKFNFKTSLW", "details": "within a concentration of between 2 M and 10 mM (so in the source); positive control; cited from earlier work"}, "SH-SY5Y cells [1]": {"tested_on": "SH-SY5Y cells", "experiment": "Protection against neuronal apoptosis induced by hydrogen peroxide, MTT method", "assay_type": "cell-based, human", "details": "SH-SY5Y cells damaged by H2O2 1000 μM/L for 12 h; concentration of 1 μM", "experimental": "Dopaminergic neuroblastoma tumor cells SH-SY5Y from human body were employed as experiment cells. H2O2 having a concentration of 1000 μM/L was used to treat SH-SY5Y cells for 12 h. Cell viability was approximately 50%, and a hydrogen peroxide damage model was determined MTT method was used to test the protection of TJ-M201018 (1), TJ-M201005 (2), TJ-M201041 (3), TJ-M201021 (4), and TJ-M201064 (5) on the cells damaged by hydrogen peroxide; results were shown in FIG. 3."}, "SH-SY5Y cells [2]": {"tested_on": "SH-SY5Y cells", "experiment": "Protection against cobalt chloride-induced hypoxic injury, MTT method and microscope", "assay_type": "cell-based, human", "details": "cobalt chloride 600 μM/L for 24 h, FIG. 4, FIG. 6", "experimental": "Dopaminergic neuroblastoma tumor cells SH-SY5Y from human body were employed as experiment cells. Cobalt chloride having a concentration of 600 μM/L was used to treat SH-SY5Y cells for 24 h. […] It was known from the results that the aminothiazole derivatives have good protection on the cell against hypoxic injuries caused by cobalt chloride. Observed under the microscope, cells after being damaged (FIG. 5) had unclear edges, and the number of the cells was decreased. […] The growth of the cells was good."}, "CD80 in RAW264.7 cells": {"tested_on": "CD80 in RAW264.7 cells", "details": "pre-incubated 2 h, then stimulus 12 h", "experimental": "4. Flow antibodies FITC-labeled anti-CD80, CD86 were added for testing.\nRaw264.7: 48-well plate, cells number of […]. Each well was added with 1 mL of culture system. Different concentrations of TJ-M201021 were added, and cells were pre-incubated for 2 h. CPG was then added. A final concentration was 40 ug/mL. Cells were incubated for 12 h at a temperature of 37° C. in an incubator filled with CO2. Flow antibodies FITC-labeled anti-CD80 and CD86 were added for testing."}},
  "data": [
    {"smiles": "NC(=O)c1cccc(N)c1", "note": "[3-AB]", "values": [
      {"measurement": "inhibition effect on the PARP-1", "setting": "PARP-1", "value": "had an inhibition effect on the PARP-1"}
    ]},
    {"smiles": "COc1ccc(N2CCN(CCC(=O)Nc3nc(-c4ccccc4)cs3)CC2)cc1", "note": "[TJ-M201021]", "values": [
      {"measurement": "cell viability (FIG. 3: increase rate of the cell viability)", "setting": "SH-SY5Y cells [1]", "value": 30, "unit": "%"},
      {"measurement": "protection on the cell against hypoxic injuries caused by cobalt chloride", "setting": "SH-SY5Y cells [2]", "value": "a large number of cells existed and had clear edges"},
      {"measurement": "increase of the costimulatory molecules CD80 caused by TLR stimuli (LPS, CpG)", "setting": "CD80 in RAW264.7 cells", "value": "inhibited the increase of the costimulatory molecules CD80"}
    ]}
  ]
}
